Data as given in US12558343B2, “Medical use of icaritin” (Lunan Pharmaceutical Group Corporation, priority 2020, dated 2026).
Marks after values point to notes of the source that are not given here.

Legend:
[1] = Blood routine examination of rats before/after icaritin (Efficacy Example 1); assay type: in vivo, SD rats
Procedure: (§1) Twenty-four rats were taken and divided into 3 groups with 8 rats in each group. […] 1.0 mL of blood was collected from the orbits before administration and 20 min after a last administration, wherein 0.5 mL was used for a blood routine examination and 0.5 mL was used to prepare anticoagulated blood. The blood was treated and analyzed on the flow cytometer according to the detection method of platelet activation by flow cytometry. An activation rate of platelets activated by adenosine diphosphate (basic value) before administration and an activation rate of platelets activated by adenosine diphosphate after administration were compared. At the same time, 50 μL of anticoagulated blood was taken from the rats before administration, adenosine diphosphate was not added, and a spontaneous activation rate of the anticoagulated blood of animals was measured using the same method. The animals were fasted for 16-24 h before each blood sampling.

[2] = test system: platelets (activation induced by adenosine diphosphate); test: Platelet activation induced by adenosine diphosphate, flow cytometry (CD62p/CD61), blood of dosed rats; assay type: in vivo, SD rats; conditions: for Activation rate of platelets activated by adenosine diphosphate, Basic value / Spontaneous activation rate: before administration; for Spontaneous activation rate: no adenosine diphosphate; for Activation-promoting rate: after vs basic value; for Activation rate of platelets activated by adenosine diphosphate, After administration: 20 min after last administration
Procedure: 0.5 mL of blood was collected from the orbit of the rat and 3.8% sodium citrate was added for anticoagulation (a ratio of blood to anticoagulant was 9:1) to prepare anticoagulated blood. 50 μL of anticoagulated blood was taken from each animal for determination of spontaneous platelet activation rate; and another 50 μL of anticoagulated blood was taken and 50 μL of adenosine diphosphate with a final concentration of 10 μmol was added for activation. 1.0-1.5 μL of each of CD62pPE/Cy7 and CD61PE was added to double-label the 2 anticoagulated blood, CD61 was used to label all the platelets and CD62p was used to label the activated platelets. […] The rats were double-labeled with G2a-PE/Cy7 and G-PE […] as a control. Each tube containing the treated blood was incubated at 4° C. in a dark place for 20 min; and 0.5 mL of 4% paraformaldehyde was added to fix for 10 min. 50 μL of the fixed blood sample was taken and diluted with 1 mL of a diluent, and the diluted sample was analyzed on a flow cytometer. Platelet populations were delineated in a CD61PE/Side Angle Light Scattering (SSC) two-parameter scatterplot, 5,000 platelets were counted, the number of CD61 and CD62p-positive cells was further counted in a CD61/CD62p scatterplot, and a percentage of a positive expression rate of CD62p in an expression rate of CD61 reflected a platelet activation rate (%).
as §1

[3] = test system: platelet aggregation induced by adenosine diphosphate; test: In-vitro platelet aggregation in platelet-rich plasma induced by adenosine diphosphate; assay type: cell-based, domestic rabbits; conditions: rabbit PRP, ADP 25 μmol/L, vs 1% dimethyl sulfoxide control
Procedure: After domestic rabbits were locally anesthetized with procaine, common carotid artery was surgically separated, blood was collected and anticoagulated with 3.8% sodium citrate, the anticoagulated blood was centrifuged at 800 r/min for 10 min to prepare platelet-rich plasma (PRP), the remaining part was centrifuged at […] for 10 min to prepare platelet-poor plasma (PPP), and a platelet aggregation experiment was performed. 265 μL of PRP and 30 μL of icaritin were added to a test tube (to enable final concentrations of the icaritin to be 0.1 mmol/L, 0.5 mmol/L, and 5 mmol/L separately), incubation was performed for 5 min, 5 μL of adenosine diphosphate (at a final concentration of 25 μmol/L) was added as an inducer, and a maximum aggregation rate within 5 min was observed and recorded. 1% by mass of dimethyl sulfoxide was used as a control and a promoting effect of the icaritin of each concentration on platelet aggregation induced by adenosine diphosphate was observed.

[4] = test system: gastrointestinal bleeding caused by aspirin; test: Gastrointestinal bleeding caused by aspirin in rats, gastric mucosal bleeding; assay type: in vivo, SD rats; conditions: icaritin 18 mg/kg i.g. with aspirin 500 mg/kg i.g., 24 h
Procedure: After 24 h of the intragastric administration, the rats were anesthetized, sacrificed, and dissected. Bleeding, erosion and ulcers of the gastric mucosa surface of the rats were observed.

[5] = test system: IX-knockout mice with hemophilia; test: Tail-cut bleeding time of coagulation factor IX-knockout mice with hemophilia; assay type: in vivo
Procedure: One hour after the last administration, the tails of the mice were cut and bleeding time of each mouse was measured.

[6] = test system: prolonged bleeding time caused by aspirin; test: Tail-cut bleeding time in mice, prolonged by aspirin; assay type: in vivo, ICR mice; conditions: aspirin 20 mg/kg i.g.
Procedure: According to the body weight on the last day of the quarantine, the male and female animals were divided into six groups by a simplified random method, namely, a normal group (C), a model group (V), icaritin low-, medium- and high-dose groups (2, 6, and 18 mg/kg, L, M, H) and a positive control drug group (200 mg/kg of etamsylate, P).
After 15 min of the modeling, the tails of the mice were cut and bleeding time of each mouse was measured.

In the case of `COc1ccc(-c2oc3c(CC=C(C)C)c(O)cc(O)c3c(=O)c2O)cc1` [Icaritin], the Concentration of hemoglobin ([1]; 3 mg/kg i.g. 3 days) is reported as 180500 ± 11200 µg/mL, the Number of erythrocytes ([1]; 3 mg/kg i.g. 3 days) is reported as 7.213 ± 0.554 10^12/L and the Number of leukocytes ([1]; 3 mg/kg i.g. 3 days) is reported as 1.832 ± 0.154 10^9/L. The Number of platelets ([1]; 3 mg/kg i.g. 3 days) was 1124 ± 209 10^9/L, the Concentration of hemoglobin ([1]; 6 mg/kg i.g. 3 days) was 179000 ± 9200 µg/mL and the Number of erythrocytes ([1]; 6 mg/kg i.g. 3 days) was 6.783 ± 0.871 10^12/L. For the same compound, the Number of leukocytes ([1]; 6 mg/kg i.g. 3 days) was 1.653 ± 0.421 10^9/L, the Number of platelets ([1]; 6 mg/kg i.g. 3 days) was 1397 ± 143 10^9/L and the Concentration of hemoglobin ([1]; 18 mg/kg i.g. 3 days) was 181600 ± 9500 µg/mL. The Number of erythrocytes ([1]; 18 mg/kg i.g. 3 days) was 7.235 ± 0.656 10^12/L, the Number of leukocytes ([1]; 18 mg/kg i.g. 3 days) was 1.761 ± 0.335 10^9/L and the Number of platelets ([1]; 18 mg/kg i.g. 3 days) was 1249 ± 166 10^9/L. The “Activation rate of platelets activated by adenosine diphosphate, Basic value” (“Activation rate … Basic value” below) ([2]; 3 mg/kg group) was 44.02 ± 11.21%, the Spontaneous activation rate ([2]; 3 mg/kg group) was 0.60 ± 0.11% and the Activation-promoting rate ([2]; 3 mg/kg i.g. 3 days) was 32.12%. For the same compound, the “Activation rate of platelets activated by adenosine diphosphate, After administration” value (shortened to “Activation rate … After administration”) ([2]; 3 mg/kg i.g. once a day 3 days) was 58.16 ± 13.41%, the “Activation rate … Basic value” ([2]; 6 mg/kg group) was 47.19 ± 13.12% and the Spontaneous activation rate ([2]; 6 mg/kg group) was 0.59 ± 0.20%. For the same compound, the Activation-promoting rate ([2]; 6 mg/kg i.g. 3 days) was 38.22%, the “Activation rate … After administration” value ([2]; 6 mg/kg i.g. once a day 3 days) was 65.23 ± 16.78% and the “Activation rate … Basic value” ([2]; 18 mg/kg group) was 50.34 ± 19.22%. The Spontaneous activation rate ([2]; 18 mg/kg group) was 0.61 ± 0.14%, the Activation-promoting rate ([2]; 18 mg/kg i.g. 3 days) was 55.84% and the “Activation rate … After administration” value ([2]; 18 mg/kg i.g. once a day 3 days) was 78.45 ± 20.22%. For the same compound, the Aggregation-promoting rate ([3]; 0.1 mmol/L) was 23.3 ± 4.5%, the Aggregation-promoting rate ([3]; 0.5 mmol/L) was 38.9 ± 8.7% and the Aggregation-promoting rate ([3]; 5 mmol/L) was 52.2 ± 9.0%. The Bleeding rate ([4]; model group 66.7) was 16.7^## %, the “Number of bleeding animals” value ([4]; of 12 rats) was 2 and the Bleeding time ([5]; group B, 3 mg/kg i.g. once a day 11 days, 1 h after last administration, control 37.8 ± 12.4) was 25.5 ± 8.9 min. The Bleeding time ([5]; group C, 6 mg/kg i.g. once a day 11 days) was 20.4 ± 6.9 min, the Bleeding time ([5]; group D, 18 mg/kg i.g. once a day 11 days) was 16.5 ± 9.7 min and the Bleeding time ([6]; group H, 18 mg/kg i.g. once a day 5 days) was 16.7 ± 7.2^$ $ & min. The Bleeding time ([6]; group L, 2 mg/kg i.g. once a day 5 days, tail cut 15 min after modeling) was 28.4 ± 9.8^$ min and the Bleeding time ([6]; group M, 6 mg/kg i.g. once a day 5 days) was 24.7 ± 7.3^$ min.
